Laboratory results: US6737383B1, “Herbicidal oxadiazolidines” (priority 1999, dated 2004)

Tests used:
cocklebur = assay: Test B pre/postemergence cocklebur; assay type: in vivo, Xanthium strumarium
Method in brief: (§1)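 Response is a visual 0-to-10 score relative to untreated plants, where 0 means no effect and 10 means complete control, taken twelve to sixteen days after application. Treatments went onto soil at planting and onto foliage of 1- to 4-leaf plants, using a surfactant-containing non-phytotoxic solvent.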

rape = assay: Test B pre/postemergence rape; assay type: in vivo, Brassica napus
Method in brief: as §1

pigweed = assay: Test B pre/postemergence pigweed; assay type: in vivo, Amaranthus retroflexus
Method in brief: as §1

bedstraw = assay: Test B pre/postemergence bedstraw; assay type: in vivo, Galium aparine; conditions: for Bedstraw plant response rating: Rate 62 g/ha
Method in brief: as §1

velvetleaf = assay: Test B pre/postemergence velvetleaf; assay type: in vivo, Abutilon theophrasti
Method in brief: as §1

purple nutsedge = assay: Test B pre/postemergence purple nutsedge; assay type: in vivo, Cyperus rotundus
Method in brief: as §1

duck salad = assay: Test B flood test duck salad; assay type: in vivo, Heteranthera limosa
Method in brief: (§2)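 Plants were grown to the 2-leaf stage before treatment with test chemical, then held in a greenhouse for twelve to sixteen days. Injury was visually rated against untreated controls on a 0–10 scale, where 0 is no effect and 10 is complete control.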

corn = assay: Test B pre/postemergence corn; assay type: in vivo, Zea mays
Method in brief: as §1

smallflower flatsedge = assay: Test B flood test smallflower flatsedge; assay type: in vivo, Cyperus difformis
Method in brief: as §2

wheat = assay: Test B pre/postemergence wheat; assay type: in vivo, Triticum aestivum
Method in brief: as §1

crabgrass = assay: Test B pre/postemergence crabgrass; assay type: in vivo, Digitaria sanguinalis
Method in brief: as §1

soybean = assay: Test B pre/postemergence soybean; assay type: in vivo, Glycine max; conditions: for Plant response rating, Soybean: Postemergence
Method in brief: as §1

morningglory = assay: Test B pre/postemergence morningglory; assay type: in vivo, Ipomoea hederacea
Method in brief: as §1

wild oat = assay: Test B pre/postemergence wild oat; assay type: in vivo, Avena fatua
Method in brief: as §1

rice = assay: Test B flood test rice; assay type: in vivo, Oryza sativa
Method in brief: as §2

giant foxtail = assay: Test B pre/postemergence giant foxtail; assay type: in vivo, Setaria faberii
Method in brief: as §1

[1] = Postemergence, Rate 125 g/ha, scale 0 to 10, 0 is no effect, 10 is complete control
[2] = Preemergence, Rate 250 g/ha, scale of 0 to 10 where 0 is no effect and 10 is complete control
[3] = Preemergence, Rate 500 g/ha, scale of 0 to 10 where 0 is no effect and 10 is complete control
[4] = Rate 62 g/ha, Postemergence, scale 0 to 10 (0 no effect, 10 complete control)
[5] = Rate 250 g/ha, Postemergence, scale of 0 to 10 where 0 is no effect and 10 is complete control
[6] = Rate 500 g/ha, Postemergence, scale 0 to 10, 0 no effect, 10 complete control
[7] = Preemergence, Rate 62 g/ha, scale of 0 to 10 where 0 is no effect and 10 is complete control
[8] = Rate 62 g/ha, headed Pre-emergence (flood test species), scale 0 to 10 (0 no effect, 10 complete control)
[9] = Rate 125 g/ha, Pre-emergence, flood test species, scale 0 to 10 where 0 is no effect and 10 is complete control
[10] = Rate 250 g/ha, Pre-emergence, flood-test species, scale 0 to 10, 0 is no effect, 10 is complete control
[11] = Rate 500 g/ha, Pre-emergence, flood test species, scale 0 to 10 (0 no effect, 10 complete control)

SMILES: CC(C)N(C(=O)n1oc(=O)n(C2CC3CCC2C3)c1=O)c1ccccc1 (stereo not drawn) [Compound 328]
- Plant response rating, Cocklebur (cocklebur; [1]): 0
- Cocklebur plant response rating (0 to 10 scale) (cocklebur; Preemergence, Rate 125 g/ha): 0
- Cocklebur plant response rating (cocklebur; [2]): 0
- Cocklebur plant response rating (cocklebur; [3]): 0
- Cocklebur plant response rating (cocklebur; [4]): 0
- Plant response rating, Cocklebur (cocklebur; [5]): 0
- Plant response rating, Cocklebur (cocklebur; [6]): 0
- Plant response rating, Rape (rape; [1]): 0
- Rape plant response rating (rape; [7]): 0
- Rape plant response rating (0 to 10 scale) (rape; Preemergence, Rate 125 g/ha): 0
- Rape plant response rating (rape; [2]): 0
- Rape plant response rating (rape; [3]): 0
- Rape plant response rating (rape; [4]): 0
- Plant response rating, Rape (rape; [5]): 0
- Plant response rating, Rape (rape; [6]): 0
- Plant response rating, Redroot pigweed (pigweed; [1]): 3
- Redroot pigweed plant response rating (pigweed; [7]): 0
- Redroot pigweed plant response rating (0 to 10 scale) (pigweed; Preemergence, Rate 125 g/ha): 0
- Redroot pigweed plant response rating (pigweed; [2]): 0
- Redroot pigweed plant response rating (pigweed; [3]): 4
- Redroot pigweed plant response rating (pigweed; [4]): 2
- Plant response rating, Redroot pigweed (pigweed; [5]): 3
- Plant response rating, Redroot pigweed (pigweed; [6]): 5
- Plant response rating, Bedstraw (bedstraw; [1]): 1
- Bedstraw plant response rating (bedstraw; Preemergence, scale of 0 to 10 where 0 is no effect and 10 is complete control): 0
- Bedstraw plant response rating (0 to 10 scale) (bedstraw; Preemergence, Rate 125 g/ha): 0
- Bedstraw plant response rating (bedstraw; Postemergence, scale 0 to 10 (0 no effect, 10 complete control)): 0
- Plant response rating, Bedstraw (bedstraw; [5]): 4
- Plant response rating, Velvetleaf (velvetleaf; [1]): 0
- Velvetleaf plant response rating (velvetleaf; [7]): 0
- Velvetleaf plant response rating (0 to 10 scale) (velvetleaf; Preemergence, Rate 125 g/ha): 0
- Velvetleaf plant response rating (velvetleaf; [2]): 0
- Velvetleaf plant response rating (velvetleaf; [3]): 0
- Velvetleaf plant response rating (velvetleaf; [4]): 0
- Plant response rating, Velvetleaf (velvetleaf; [5]): 0
- Plant response rating, Velvetleaf (velvetleaf; [6]): 0
- Plant response rating, Nutsedge (purple nutsedge; [1]): 0
- Nutsedge plant response rating (purple nutsedge; [7]): 0
- Nutsedge plant response rating (0 to 10 scale) (purple nutsedge; Preemergence, Rate 125 g/ha): 0
- Nutsedge plant response rating (purple nutsedge; [2]): 0
- Nutsedge plant response rating (purple nutsedge; [3]): 0
- Nutsedge plant response rating (purple nutsedge; [4]): 0
- Plant response rating, Nutsedge (purple nutsedge; [5]): 0
- Plant response rating, Nutsedge (purple nutsedge; [6]): 0
- Ducksalad plant response rating (duck salad; [8]): 0
- Ducksalad plant response rating (duck salad; [9]): 0
- Ducksalad plant response rating (duck salad; [10]): 0
- Ducksalad plant response rating (duck salad; [11]): 0
- Plant response rating, Corn (corn; [1]): 0
- Corn plant response rating (corn; [7]): 0
- Corn plant response rating (0 to 10 scale) (corn; Preemergence, Rate 125 g/ha): 0
- Corn plant response rating (corn; [2]): 0
- Corn plant response rating (corn; [3]): 0
- Corn plant response rating (corn; [4]): 0
- Plant response rating, Corn (corn; [5]): 0
- Plant response rating, Corn (corn; [6]): 0
- S. Flatsedge plant response rating (smallflower flatsedge; [8]): 0
- S. Flatsedge plant response rating (smallflower flatsedge; [9]): 0
- S. Flatsedge plant response rating (smallflower flatsedge; [10]): 0
- S. Flatsedge plant response rating (smallflower flatsedge; [11]): 0
- Plant response rating, Wheat (wheat; [1]): 0
- Wheat plant response rating (wheat; [7]): 0
- Wheat plant response rating (0 to 10 scale) (wheat; Preemergence, Rate 125 g/ha): 0
- Wheat plant response rating (wheat; [2]): 0
- Wheat plant response rating (wheat; [3]): 0
- Wheat plant response rating (wheat; [4]): 0
- Plant response rating, Wheat (wheat; [5]): 0
- Plant response rating, Wheat (wheat; [6]): 0
- Plant response rating, Crabgrass (crabgrass; [1]): 0
- Crabgrass plant response rating (crabgrass; [7]): 0
- Crabgrass plant response rating (0 to 10 scale) (crabgrass; Preemergence, Rate 125 g/ha): 0
- Crabgrass plant response rating (crabgrass; [2]): 3
- Crabgrass plant response rating (crabgrass; [3]): 5
- Crabgrass plant response rating (crabgrass; [4]): 0
- Plant response rating, Crabgrass (crabgrass; [5]): 0
- Plant response rating, Crabgrass (crabgrass; [6]): 2
- Plant response rating, Soybean (soybean; Rate 125 g/ha, scale 0 to 10, 0 is no effect, 10 is complete control): 2
- Soybean plant response rating (soybean; [7]): 0
- Soybean plant response rating (0 to 10 scale) (soybean; Preemergence, Rate 125 g/ha): 0
- Soybean plant response rating (soybean; [2]): 0
- Soybean plant response rating (soybean; [3]): 0
- Plant response rating, Soybean (soybean; Rate 250 g/ha, scale of 0 to 10 where 0 is no effect and 10 is complete control): 5
- Plant response rating, Soybean (soybean; Rate 500 g/ha, scale 0 to 10, 0 no effect, 10 complete control): 6
- Plant response rating, Morningglory (morningglory; [1]): 8
- Morningglory plant response rating (morningglory; [7]): 0
- Morningglory plant response rating (0 to 10 scale) (morningglory; Preemergence, Rate 125 g/ha): 0
- Morningglory plant response rating (morningglory; [2]): 0
- Morningglory plant response rating (morningglory; [3]): 4
- Morningglory plant response rating (morningglory; [4]): 7
- Plant response rating, Morningglory (morningglory; [5]): 10
- Plant response rating, Morningglory (morningglory; [6]): 10
- Plant response rating, Wild oats (wild oat; [1]): 0
- Wild oats plant response rating (wild oat; [7]): 0
- Wild oats plant response rating (0 to 10 scale) (wild oat; Preemergence, Rate 125 g/ha): 0
- Wild oats plant response rating (wild oat; [2]): 0
- Wild oats plant response rating (wild oat; [3]): 1
- Wild oats plant response rating (wild oat; [4]): 0
- Plant response rating, Wild oats (wild oat; [5]): 0
- Plant response rating, Wild oats (wild oat; [6]): 0
- Rice plant response rating (rice; [8]): 0
- Rice plant response rating (rice; [9]): 0
- Rice plant response rating (rice; [10]): 0
- Rice plant response rating (rice; [11]): 7
- Plant response rating, Giant foxtail (giant foxtail; [1]): 0
- Giant foxtail plant response rating (giant foxtail; [7]): 0
- Giant foxtail plant response rating (0 to 10 scale) (giant foxtail; Preemergence, Rate 125 g/ha): 5
- Giant foxtail plant response rating (giant foxtail; [2]): 8
- Giant foxtail plant response rating (giant foxtail; [3]): 9
- Giant foxtail plant response rating (giant foxtail; [4]): 0
- Plant response rating, Giant foxtail (giant foxtail; [5]): 0
- Plant response rating, Giant foxtail (giant foxtail; [6]): 1
